According to article PMC6713354, “Structural and biochemical studies of an NB-ARC domain from a plant NLR immune receptor” (PLoS ONE, 2019):

How the values were obtained:
NRC1 NB-ARC domain [1] = target: T1, NRC1 NB-ARC domain (Solanum lycopersicum, UniProt A1X877); test: X-ray crystal structure, […] A (native); SeMet SAD map at […] A; conditions: co-purified ligand; nucleotide-binding pocket; E. coli-expressed protein; crystals at pH 4.5
T1 construct: NB-ARC domain, residues 150-494; E. coli Lemo21(DE3) (pOPIN-S3C, 6xHis-SUMO) or Sf9 cells (pOPIN-F, 6xHis); N-terminal tag cut with 3C protease; 346 residues in expressed construct; about 40 kDa monomer
T1 sequence (A1X877 entry or part of it): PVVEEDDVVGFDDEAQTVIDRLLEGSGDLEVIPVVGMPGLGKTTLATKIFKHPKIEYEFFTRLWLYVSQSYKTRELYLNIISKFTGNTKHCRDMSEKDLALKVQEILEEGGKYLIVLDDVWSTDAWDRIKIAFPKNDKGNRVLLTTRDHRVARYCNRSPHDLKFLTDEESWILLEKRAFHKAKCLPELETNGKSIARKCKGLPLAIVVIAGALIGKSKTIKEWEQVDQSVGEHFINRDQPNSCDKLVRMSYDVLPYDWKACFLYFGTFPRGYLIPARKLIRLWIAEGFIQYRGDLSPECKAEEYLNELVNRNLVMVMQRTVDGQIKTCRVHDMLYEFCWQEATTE

NRC1 NB-ARC domain [2] = target: T2, NRC1 NB-ARC domain (Solanum lycopersicum, UniProt A1X877, D268N); test: luciferase assay of nucleotide released by boiling, ADP converted to ATP with pyruvate kinase; type: binding; conditions: co-purified ligand, no ADP added; protein from Sf9 cells; Walker B mutant; no ATP detected
T2 construct: NB-ARC domain, residues 150-494; E. coli Lemo21(DE3) (pOPIN-S3C, 6xHis-SUMO) or Sf9 cells (pOPIN-F, 6xHis); N-terminal tag cut with 3C protease; 346 residues in expressed construct; about 40 kDa monomer
T2 sequence (A1X877 entry or part of it D268N): as the sequence (A1X877 entry or part of it) above, with D119N counted along it

NRC1 NB-ARC domain [3] = target: T1, NRC1 NB-ARC domain; test: as above; type: binding; conditions: co-purified ligand, no ADP added; protein from E. coli and from Sf9 cells; no ATP detected

Nc1ncnc2c1ncn2[C@@H]1O[C@H](COP(=O)(O)OP(=O)(O)O)[C@@H](O)[C@H]1O [ADP]
X-ray crystal structure, 2.5 A (native); SeMet SAD map at 3.03 A (NRC1 NB-ARC domain [1]): allowed us to unambiguously position a molecule of ADP, and the side-chains of interacting residues
% ADP occupancy (NRC1 NB-ARC domain [2]): NRC1 NB-ARC^D268N, a mutant designed to abolish ATPase activity, also co-purified with ADP
% ADP occupancy (NRC1 NB-ARC domain [3]): all three NRC1 NB-ARC proteins co-purified with ADP with high occupancy
